According to PMC5908784, “Extracellular loops 2 and 3 of the calcitonin receptor selectively modify agonist binding and efficacy” (Biochemical Pharmacology, 2018):
Where a chain is given by its changes, count along the chain named. Where a SMILES comes first, the peptide text is derived from it. Bridges are numbered along the chain shown (N, C = ends).

Assays:
Experiment in all cases: cAMP accumulation
Type in all cases: cell-based
hCTR I279A = biological target: T1, hCTR I279A (Homo sapiens, UniProt P30988, I279A); details: mean ± S.E.M.; for Emax: cAMP maximal response, SEM; for EC50: cAMP, CV1-FlpIn cells, 30 min, IBMX
T1 construct: expressed in transfected cells
T1 sequence (P30988 25-474 I279A): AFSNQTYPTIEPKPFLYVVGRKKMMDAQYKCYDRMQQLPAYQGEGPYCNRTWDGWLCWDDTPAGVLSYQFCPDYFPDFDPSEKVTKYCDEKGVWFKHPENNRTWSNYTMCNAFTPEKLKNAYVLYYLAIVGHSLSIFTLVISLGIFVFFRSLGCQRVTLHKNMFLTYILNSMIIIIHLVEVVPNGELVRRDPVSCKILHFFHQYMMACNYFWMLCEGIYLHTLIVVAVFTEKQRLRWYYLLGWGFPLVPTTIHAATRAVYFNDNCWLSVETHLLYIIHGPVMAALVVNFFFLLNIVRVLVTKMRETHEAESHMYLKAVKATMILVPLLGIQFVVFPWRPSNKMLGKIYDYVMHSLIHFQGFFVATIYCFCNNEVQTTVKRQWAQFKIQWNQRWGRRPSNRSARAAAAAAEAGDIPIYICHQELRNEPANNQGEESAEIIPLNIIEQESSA
Outline: (§1)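 Concentration-response curves, fitted to a 3-parameter logistic equation, gave EC50 and Emax; these reflect functional affinity, efficacy and stimulus-response coupling combined. Stimulation lasted 30 min with IBMX, and data were scaled to the 100 μM forskolin response.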

hCTR W290A = biological target: T2, hCTR W290A (Homo sapiens, UniProt P30988, W290A); details: mean ± S.E.M.; for Emax: cAMP maximal response, SEM
T2 construct: c-Myc (N); expressed in transfected cells
T2 sequence (P30988 25-474 W290A): T1 sequence (P30988 25-474 I279A) with A255I, W266A
Outline: as §1

hCTR N286A = biological target: T3, hCTR N286A (Homo sapiens, UniProt P30988, N286A); details: mean ± S.E.M.; for Emax: cAMP maximal response, SEM; for EC50: cAMP, CV1-FlpIn cells, 30 min, IBMX
T3 construct: c-Myc (N); expressed in transfected cells
T3 sequence (P30988 25-474 N286A): T1 sequence (P30988 25-474 I279A) with A255I, N262A
Outline: as §1

hCTR N365A = biological target: T4, hCTR N365A (Homo sapiens, UniProt P30988, N365A); details: mean ± S.E.M.; for Emax: cAMP maximal response, SEM; for EC50: cAMP, CV1-FlpIn cells, 30 min, IBMX
T4 construct: c-Myc (N); expressed in transfected cells
T4 sequence (P30988 25-474 N365A): T1 sequence (P30988 25-474 I279A) with A255I, N341A
Outline: as §1

hCTR T280A = biological target: T5, hCTR T280A (Homo sapiens, UniProt P30988, T280A); details: mean ± S.E.M.; for Emax: cAMP maximal response, SEM; for EC50: cAMP, CV1-FlpIn cells, 30 min, IBMX
T5 construct: expressed in transfected cells
T5 sequence (P30988 25-474 T280A): T1 sequence (P30988 25-474 I279A) with A255I, T256A
Outline: as §1

EC50 (hCTR I279A)	EC50 (hCTR N286A)	EC50 (hCTR N365A)	EC50 (hCTR T280A)	EC50 (hCTR W290A; cAMP, CV1-FlpIn cells, 30 min, IBMX)	Structure (SMILES)	Emax (hCTR I279A)	Emax (hCTR W290A)	Emax (hCTR N286A)	Emax (hCTR N365A)	Emax (hCTR T280A)
					CC[C@H](C)[C@H](NC(=O)[C@H](C)NC(=O)[C@@H](NC(=O)[C@H](CCC(N)=O)NC(=O)[C@@H]1CCCN1C(=O)[C@H](Cc1ccccc1)NC(=O)[C@@H](NC(=O)[C@H](Cc1c[nH]cn1)NC(=O)[C@H](Cc1ccccc1)NC(=O)[C@H](CCCCN)NC(=O)[C@H](CC(N)=O)NC(=O)[C@H](Cc1ccccc1)NC(=O)[C@H](CC(=O)O)NC(=O)[C@H](CCC(N)=O)NC(=O)[C@@H](NC(=O)[C@H](Cc1ccc(O)cc1)NC(=O)[C@@H](NC(=O)CNC(=O)[C@H](CC(C)C)NC(=O)[C@H](CCSC)NC(=O)[C@@H]1CSSC[C@H](N)C(=O)NCC(=O)N[C@@H](CC(N)=O)C(=O)N[C@@H](CC(C)C)C(=O)N[C@@H](CO)C(=O)N[C@@H]([C@@H](C)O)C(=O)N1)[C@@H](C)O)[C@@H](C)O)[C@@H](C)O)[C@@H](C)O)C(=O)NCC(=O)N[C@H](C(=O)NCC(=O)N[C@@H](C)C(=O)N1CCC[C@H]1C(N)=O)C(C)C [hCT]	91 ± 4%	164 ± 20%	126 ± 6%	96 ± 4%	97 ± 6%
3.39 nM	14.1 nM	15.5 nM	3.31 nM		CC(C)C[C@H](NC(=O)CNC(=O)[C@H](C)NC(=O)[C@H](CC(C)C)NC(=O)[C@H](CCCNC(=N)N)NC(=O)[C@H](Cc1cnc[nH]1)NC(=O)[C@@H](NC(=O)[C@@H](NC(=O)[C@@H]1CSSC[C@H](NC(=O)[C@H](C)N)C(=O)N[C@@H](CC(=O)O)C(=O)N[C@@H]([C@@H](C)O)C(=O)N[C@@H](C)C(=O)N[C@@H]([C@@H](C)O)C(=O)N1)C(C)C)[C@@H](C)O)C(=O)N[C@@H](CC(C)C)C(=O)N[C@@H](CO)C(=O)N[C@@H](CCCNC(=N)N)C(=O)N[C@@H](CO)C(=O)NCC(=O)NCC(=O)N[C@H](C(=O)N[C@H](C(=O)N[C@@H](CCCCN)C(=O)N[C@@H](CC(N)=O)C(=O)N[C@@H](CC(N)=O)C(=O)N[C@@H](Cc1ccccc1)C(=O)N[C@H](C(=O)N1CCC[C@H]1C(=O)N[C@H](C(=O)N[C@@H](CC(N)=O)C(=O)N[C@H](C(=O)NCC(=O)N[C@@H](CO)C(=O)N[C@@H](CCCCN)C(=O)N[C@@H](C)C(=O)N[C@@H](Cc1ccccc1)C(N)=O)C(C)C)[C@@H](C)O)C(C)C)C(C)C)C(C)C [hαCGRP]	139 ± 18%		46 ± 16%	111 ± 13%	107 ± 21%
0.0398 nM	0.2 nM	0.0316 nM	0.0398 nM	3.31 nM	CSCC[C@H](NC(=O)CNC(=O)[C@H](CO)NC(=O)[C@H](Cc1ccccc1)NC(=O)[C@H](CCCNC(=N)N)NC(=O)[C@H](Cc1c[nH]cn1)NC(=O)[C@H](Cc1ccccc1)NC(=O)[C@H](CC(N)=O)NC(=O)[C@H](CC(N)=O)NC(=O)[C@H](CC(C)C)NC(=O)[C@H](CC(N)=O)NC(=O)[C@H](CCCNC(=N)N)NC(=O)[C@H](Cc1c[nH]c2ccccc12)NC(=O)[C@H](Cc1ccc(O)cc1)NC(=O)[C@H](C)NC(=O)[C@H](CO)NC(=O)[C@H](CC(C)C)NC(=O)[C@@H](NC(=O)[C@@H]1CSSC[C@H](N)C(=O)N[C@@H](CO)C(=O)N[C@@H](CC(N)=O)C(=O)N[C@@H](CC(C)C)C(=O)N[C@@H](CO)C(=O)N[C@@H]([C@@H](C)O)C(=O)N1)C(C)C)C(=O)NCC(=O)N[C@@H](Cc1ccccc1)C(=O)NCC(=O)N1CCC[C@H]1C(=O)N[C@@H](CCC(=O)O)C(=O)N[C@H](C(=O)N1CCC[C@H]1C(N)=O)[C@@H](C)O [pCT] (H-CSNLSTCVLSAYWRNLNNFHRFSGMGFGPETP-NH2; disulfide 1-7)	97 ± 4%	113 ± 12%	84 ± 6%	95 ± 5%	113 ± 5%
					CC(C)C[C@H](NC(=O)[C@H](CC(N)=O)NC(=O)[C@H](CC(N)=O)NC(=O)[C@H](CO)NC(=O)[C@H](CO)NC(=O)[C@H](CCCNC(=N)N)NC(=O)[C@@H](NC(=O)[C@H](CC(C)C)NC(=O)[C@H](Cc1ccccc1)NC(=O)[C@H](CC(N)=O)NC(=O)[C@H](C)NC(=O)[C@H](CC(C)C)NC(=O)[C@H](CCCNC(=N)N)NC(=O)[C@H](CCC(N)=O)NC(=O)[C@@H](NC(=O)[C@H](C)NC(=O)[C@@H]1CSSC[C@H](NC(=O)[C@@H](N)CCCCN)C(=O)N[C@@H](CC(N)=O)C(=O)N[C@@H]([C@@H](C)O)C(=O)N[C@@H](C)C(=O)N[C@@H]([C@@H](C)O)C(=O)N1)[C@@H](C)O)C(C)C)C(=O)NCC(=O)N1CCC[C@H]1C(=O)N[C@H](C(=O)N[C@@H](CC(C)C)C(=O)N1CCC[C@H]1C(=O)N1CCC[C@H]1C(=O)N[C@H](C(=O)N[C@@H](CC(N)=O)C(=O)N[C@H](C(=O)NCC(=O)N[C@@H](CO)C(=O)N[C@@H](CC(N)=O)C(=O)N[C@H](C(=O)N[C@@H](Cc1ccc(O)cc1)C(N)=O)[C@@H](C)O)C(C)C)[C@@H](C)O)C(C)C [rAmy]	81 ± 9%	72 ± 26%	97 ± 15%	72 ± 8%	69 ± 8%
					CC(C)C[C@H](NC(=O)[C@H](CCCCN)NC(=O)CNC(=O)[C@H](CC(C)C)NC(=O)[C@@H](NC(=O)[C@@H]1CSSC[C@H](N)C(=O)N[C@@H](CO)C(=O)N[C@@H](CC(N)=O)C(=O)N[C@@H](CC(C)C)C(=O)N[C@@H](CO)C(=O)N[C@@H]([C@@H](C)O)C(=O)N1)C(C)C)C(=O)N[C@@H](CO)C(=O)N[C@@H](CCC(N)=O)C(=O)N[C@@H](CCC(=O)O)C(=O)N[C@@H](CC(C)C)C(=O)N[C@@H](Cc1c[nH]cn1)C(=O)N[C@@H](CCCCN)C(=O)N[C@@H](CC(C)C)C(=O)N[C@@H](CCC(N)=O)C(=O)N[C@H](C(=O)N[C@@H](Cc1ccc(O)cc1)C(=O)N1CCC[C@H]1C(=O)N[C@@H](CCCNC(=N)N)C(=O)N[C@H](C(=O)N[C@@H](CC(N)=O)C(=O)N[C@H](C(=O)NCC(=O)N[C@@H](CO)C(=O)NCC(=O)N[C@H](C(=O)N1CCC[C@H]1C(N)=O)[C@@H](C)O)[C@@H](C)O)[C@@H](C)O)[C@@H](C)O [sCT]	90 ± 6%	154 ± 7%	103 ± 6%	94 ± 5%	107 ± 14%
